Source: patent US10294202B2, “Pyrrolidinones as herbicides” (FMC Corporation, priority 2013, dated 2019)

Assays:
[1] = system: pigweed; experiment: Test C pre-/postemergence herbicide test; assay type: in vivo, Amaranthus retroflexus
In short: (§1)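 Pre-emergence: seeds sown in loam/sand blend and treated with compound in surfactant-containing solvent. Post-emergence: plants at 2–18 cm (1- to 4-leaf stage) in peat-based medium sprayed with the same formulation. Visual rating versus controls after 13–15 days in greenhouse, scale 0 (no effect) to 100 (complete control).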

[2] = system: crabgrass, large; experiment: Test C pre-/postemergence herbicide test; assay type: in vivo, Digitaria sanguinalis
In short: as §1

[3] = system: lambsquarters; experiment: Test C pre-/postemergence herbicide test; assay type: in vivo, Chenopodium album
In short: as §1

[4] = system: barnyardgrass; experiment: Test B flooded paddy test; assay type: in vivo, Echinochloa crus-galli; conditions: 500 g ai/ha, Flood; scale of 0 to 100 where 0 is no effect and 100 is complete control
In short: (§2)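 In-water application to pots flooded 3 cm deep, plants at 2-leaf stage. Held in greenhouse 13–15 days at constant flood depth. Scored 0–100 by eye against controls.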

[5] = system: barnyardgrass; experiment: Test A pre-/postemergence herbicide test; assay type: in vivo, Echinochloa crus-galli
In short: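 Seeds in loam–sand blend received preemergence directed soil spray; separately, plants 2–10 cm at one- to two-leaf stage received postemergence spray, both with test chemicals in non-phytotoxic solvent with surfactant. After ~10 days in greenhouse, injury rated visually against untreated controls, 0 (no effect) to 100 (complete control).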

[6] = system: blackgrass; experiment: Test C pre-/postemergence herbicide test; assay type: in vivo, Alopecurus myosuroides
In short: as §1

[7] = system: foxtail, giant; experiment: Test C pre-/postemergence herbicide test; assay type: in vivo, Setaria faberii
In short: as §1

[8] = system: galium; experiment: Test C pre-/postemergence herbicide test; assay type: in vivo, Galium aparine; conditions: Preemergence
In short: as §1

[9] = system: corn; experiment: Test C pre-/postemergence herbicide test; assay type: in vivo, Zea mays
In short: as §1

[10] = system: rice; experiment: Test B flooded paddy test; assay type: in vivo, Oryza sativa; conditions: 500 g ai/ha, Flood; scale of 0 to 100 where 0 is no effect and 100 is complete control
In short: as §2

[11] = system: velvetleaf; experiment: Test C pre-/postemergence herbicide test; assay type: in vivo, Abutilon theophrasti
In short: as §1

[12] = Postemergence, 31 g ai/ha, scale 0 to 100 (0 no effect, 100 complete control)
[13] = Postemergence, 62 g ai/ha, scale 0 (no effect) to 100 (complete control)
[14] = Postemergence, 125 g ai/ha, scale 0 to 100 (0 no effect, 100 complete control)
[15] = Postemergence, 250 g ai/ha, scale 0 to 100 (0 no effect, 100 complete control)
[16] = Preemergence, 31 g ai/ha, scale 0 to 100, 0 is no effect and 100 is complete control
[17] = Preemergence, 62 g ai/ha, scale 0 to 100 (0 no effect, 100 complete control)
[18] = Preemergence, 125 g ai/ha, scale 0 to 100 (0 no effect, 100 complete control)

What does the source list for `CN1CC(c2cccc(C(F)(F)F)c2)C(C(=O)Nc2cccc(F)c2F)C1=O` (stereo not drawn) [Compound 305]?
Plant response rating, Pigweed [1, 12]: 55; Plant response rating, Pigweed [1, 13]: 60; Plant response rating, Pigweed [1, 14]: 65; Plant response rating, Pigweed [1, 15]: 65; Pigweed plant response rating [1, 16]: 10; Pigweed plant response rating [1, 17]: 70; Plant response rating, Pigweed [1, 18]: 80; Plant response rating (scale of 0 to 100), Pigweed ([1]; Preemergence, 250 g ai/ha): 85; Plant response rating, Crabgrass, Large [2, 12]: 40; Plant response rating, Crabgrass, Large [2, 13]: 55; Plant response rating, Crabgrass, Large [2, 14]: 75; Plant response rating, Crabgrass, Large [2, 15]: 80; Crabgrass, Large plant response rating [2, 16]: 95; Crabgrass, Large plant response rating [2, 17]: 95; Plant response rating, Crabgrass, Large [2, 18]: 90; Plant response rating (scale of 0 to 100), Crabgrass, Large ([2]; Preemergence, 250 g ai/ha): 95; Plant response rating, Lambsquarters [3, 12]: 60; Plant response rating, Lambsquarters [3, 13]: 35; Plant response rating, Lambsquarters [3, 14]: 50; Plant response rating, Lambsquarters [3, 15]: 65; Lambsquarters plant response rating [3, 16]: 60; Lambsquarters plant response rating [3, 17]: 70; Plant response rating, Lambsquarters [3, 18]: 70; Plant response rating (scale of 0 to 100), Lambsquarters ([3]; Preemergence, 250 g ai/ha): 75; Plant response rating, Barnyardgrass [4]: 75; Plant response rating, Barnyardgrass ([5]; Postemergence, 125 g ai/ha, visual rating on 0 to 100 scale (0 no effect, 100 complete control), approx. 10 days): 80; Plant response rating, Barnyardgrass ([5]; Postemergence, 500 g ai/ha, 0 to 100 scale (0 no effect, 100 complete control)): 90; Plant response rating, Barnyardgrass ([5]; Preemergence, 125 g ai/ha, 0 to 100 scale where 0 is no effect and 100 is complete control): 80; Barnyardgrass plant response rating ([5]; Preemergence, 500 g ai/ha, visual rating on 0 to 100 scale (0 no effect, 100 complete control)): 90; Plant response rating, Blackgrass [6, 12]: 0; Plant response rating, Blackgrass [6, 13]: 0; Plant response rating, Blackgrass [6, 14]: 30; Plant response rating, Blackgrass [6, 15]: 10; Blackgrass plant response rating [6, 16]: 60; Blackgrass plant response rating [6, 17]: 75; Plant response rating, Blackgrass [6, 18]: 70; Plant response rating (scale of 0 to 100), Blackgrass ([6]; Preemergence, 250 g ai/ha): 90; Plant response rating, Foxtail, Giant [7, 12]: 0; Plant response rating, Foxtail, Giant [7, 13]: 65; Plant response rating, Foxtail, Giant [7, 14]: 85; Plant response rating, Foxtail, Giant [7, 15]: 90; Foxtail, Giant plant response rating [7, 16]: 95; Foxtail, Giant plant response rating [7, 17]: 95; Plant response rating, Foxtail, Giant [7, 18]: 95; Plant response rating (scale of 0 to 100), Foxtail, Giant ([7]; Preemergence, 250 g ai/ha): 95; Galium plant response rating ([8]; 31 g ai/ha, scale 0 to 100, 0 is no effect and 100 is complete control): 80; Galium plant response rating ([8]; 62 g ai/ha, scale 0 to 100 (0 no effect, 100 complete control)): 80; Plant response rating, Galium ([8]; 125 g ai/ha, scale 0 to 100 (0 no effect, 100 complete control)): 90; Plant response rating (scale of 0 to 100), Galium ([8]; 250 g ai/ha): 90; Plant response rating, Corn [9, 12]: 0; Plant response rating, Corn [9, 13]: 5; Plant response rating, Corn [9, 14]: 40; Plant response rating, Corn [9, 15]: 45; Corn plant response rating [9, 16]: 65; Corn plant response rating [9, 17]: 75; Plant response rating, Corn [9, 18]: 75; Plant response rating (scale of 0 to 100), Corn ([9]; Preemergence, 250 g ai/ha): 80; Plant response rating, Rice [10]: 15; Plant response rating, Velvetleaf [11, 12]: 10; Plant response rating, Velvetleaf [11, 13]: 40; Plant response rating, Velvetleaf [11, 14]: 40; Plant response rating, Velvetleaf [11, 15]: 65; Velvetleaf plant response rating [11, 16]: 25; Velvetleaf plant response rating [11, 17]: 30; Plant response rating, Velvetleaf [11, 18]: 55; Plant response rating (scale of 0 to 100), Velvetleaf ([11]; Preemergence, 250 g ai/ha): 55
